Source: patent publication US6642217B2, “Triterpenes having human antifungal and antiyeast activity” (Naturtek, LLC, priority 2000, dated 2003)

Columns and labels:
Microsporum audouinni = assay: Direct addition method, solid compound in Sabouraud dextrose agar; assay type: cell-based, Microsporum audouinii; design: key to Fungal growth: +++: Maximum Fungal Growth; ++: Moderate Fungal Growth; +: Minimum Fungal Growth; +/−: Very little Fungal Growth; −: No Fungal Growth; settings: 4 mg/mL of agar; 12th day after inoculation
In short: (§1)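 Direct-addition agar test: compound (4 mg/ml final, added undissolved to molten Sabouraud dextrose agar) in slants, incubated 25-28° C. with growth noted on day 12.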

Epidermophyton floccosum [1] = assay: as above; assay type: cell-based; design: key: +++: Maximum Fungal Growth; ++: Moderate Fungal Growth; +: Minimum Fungal Growth; +/−: Very little Fungal Growth; −: No Fungal Growth; settings: 4 mg/mL of agar; 12th day after inoculation
In short: as §1

Trichophyton rubrum = assay: as above; assay type: cell-based; design: key: +++: Maximum Fungal Growth; ++: Moderate Fungal Growth; +: Minimum Fungal Growth; +/−: Very little Fungal Growth; −: No Fungal Growth; settings: 4 mg/mL of agar; 12th day after inoculation
In short: as §1

[2] = tested on: Trichophyton mentagrophytes; assay: as above; assay type: cell-based; design: key: +++: Maximum Fungal Growth; ++: Moderate Fungal Growth; +: Minimum Fungal Growth; +/−: Very little Fungal Growth; −: No Fungal Growth; settings: 4 mg/mL of agar; 12th day after inoculation
In short: as §1

Microsporum gypseum [3] = assay: as above; assay type: cell-based; design: key: +++: Maximum Fungal Growth; ++: Moderate Fungal Growth; +: Minimum Fungal Growth; +/−: Very little Fungal Growth; −: No Fungal Growth; settings: 4 mg/mL of agar; 12th day after inoculation
In short: as §1

Pityrosporum ovale [4] = assay: as above; assay type: cell-based; design: key: +++: Maximum Fungal Growth; ++: Moderate Fungal Growth; +: Minimum Fungal Growth; +/−: Very little Fungal Growth; −: No Fungal Growth; settings: 4 mg/mL of agar; 12th day after inoculation
In short: as §1

Microsporum canis [5] = assay: as above; assay type: cell-based; design: key: +++: Maximum Fungal Growth; ++: Moderate Fungal Growth; +: Minimum Fungal Growth; +/−: Very little Fungal Growth; −: No Fungal Growth; settings: 4 mg/mL of agar; 12th day after inoculation
In short: as §1

Microsporum canis [6] = assay: as above; assay type: cell-based; settings: against Microsporum canis
Description: (§2) Direct addition method. Sabouraud dextrose agar was prepared according to the manufacturer's instructions and 5.0 ml was dispensed in each 100×25 mm tube. The tubes were autoclaved. To each tube containing 5.0 ml of liquid agar at 45° C., 20 mg of solid test compound was added, to give a final concentration of 4 mg/ml. The agar was solidified in slants. The fungal cultures were then innoculated. The slants were incubated at 25-28 ° C. for 10-12 days, and the growth of the fungus was recorded every second day. The results in Table 2 indicate growth at the 12th day of inoculation.

Trichophyton tonsuran = assay: as above; assay type: cell-based, Trichophyton tonsurans; design: key: +++: Maximum Fungal Growth; ++: Moderate Fungal Growth; +: Minimum Fungal Growth; +/−: Very little Fungal Growth; −: No Fungal Growth; settings: 4 mg/mL of agar; 12th day after inoculation
Description: as §2

[7] = tested on: Trichophyton mentagrophytes; assay: Direct addition to liquid culture method, optical density at 600 nm; assay type: cell-based; settings: 25, 50 and 100 μg/ml; 12 days
Description: Direct addition to liquid culture method. Sabouraud dextrose broth was prepared according to the manufacturer's instructions, and 7.0 ml was dispensed into 100×25 mm tubes and autoclaved. To each tube containing 7.0 ml of liquid broth, the test compounds dissolved in DMSO were added to final concentrations of 25, 50, and 100 μg/ml. The tubes were then inoculated with 150 μl of a fungus suspension and incubated at 25-28° C. for 10-12 days. Growth was measured every second day by measuring optical density at 600 nm against a blank containing sterile broth.

Pityrosporum ovale [8] = assay: Direct addition into the Pityrosporum agar; assay type: cell-based; design: key to Pityrosporum ovale growth: +++: Maximum Growth; ++: Moderate Growth; +: Minimum Growth; +/−: Very Little Growth; −: No Growth; settings: 4 mg/ml in the agar; 18 hours after inoculation
Description: as §2, with “The slants were incubated at 25-28 ° C. for 10-12 days, and the growth of the fungus was recorded every second day. The results in Table 2 indicate growth at the 12th day of inoculation.” left out

Blastomyces dermatidis = assay: Summary of anti-fungal assays (direct addition, agar dilution, liquid culture); assay type: cell-based; settings: stated in words (Tables 1a/1b, text to Table 5)
Description: (§3) This example summarizes the results of various other assays of the anti-fungal activity of betulin derivatives. Table 5 summarizes results using different assay methods—direct addition, agar dilution, and direct addition to liquid culture, as disclosed in the previous three Examples. In some cases, only one type of assay was done with a compound. In other cases, the compound was tested by multiple assays.

Epidermophyton floccosum [9] = assay: as above; assay type: cell-based; settings: stated in words (Tables 1a/1b, text to Table 5); listed as betulin-3,28-dioxalate-3,28-polyethyleneimine
Description: as §3

Candida albicans = assay: as above; assay type: cell-based; settings: stated in words (Tables 1a/1b, text to Table 5)
Description: as §3

Microsporum audouinii = assay: as above; assay type: cell-based; settings: stated in words (Tables 1a/1b, text to Table 5)
Description: as §3

[10] = tested on: Trichophyton mentagrophytes; assay: as above; assay type: cell-based; settings: stated in words (Tables 1a/1b, text to Table 5)
Description: as §3

Microsporum gypseum [11] = assay: as above; assay type: cell-based; settings: stated in words (Tables 1a/1b, text to Table 5)
Description: as §3

Trichophyton tonsurans = assay: as above; assay type: cell-based; settings: stated in words (Tables 1a/1b, text to Table 5)
Description: as §3

Crytococcus neoformans = assay: as above; assay type: cell-based, Cryptococcus neoformans; settings: stated in words (Tables 1a/1b, text to Table 5)
Description: as §3

| Molecule | Fungal growth (Microsporum audouinni) | Fungal growth (Epidermophyton floccosum [1]) | Fungal growth (Trichophyton rubrum) | Fungal growth [2] | Fungal growth (Microsporum gypseum [3]) | Fungal growth (Pityrosporum ovale [4]) | Fungal growth (Microsporum canis [5]) | best anti-fungal or anti-yeast activity by the direct addition method (Microsporum canis [6]) | Fungal growth (Trichophyton tonsuran) | Growth inhibition in liquid culture (optical density, FIG. 1) [7] | Pityrosporum ovale growth (Pityrosporum ovale [8]) | Active against Blastomyces dermatidis (Blastomyces dermatidis) | Active against Epidermophyton floccosum (Epidermophyton floccosum [9]) | Active against Candida albicans (Candida albicans) | Active against Microsporum audouinii (Microsporum audouinii) | Active against Trichophyton mentagrophytes [10] | Active against Microsporum gypseum (Microsporum gypseum [11]) | Active against Trichophyton tonsurans (Trichophyton tonsurans) | Active against Cryptococcus neoformans (Crytococcus neoformans) |
| --- | --- | --- | --- | --- | --- | --- | --- | --- | --- | --- | --- | --- | --- | --- | --- | --- | --- | --- | --- |
| C=C(C)[C@@H]1CC[C@]2(COC(=O)/C=C\C(=O)O)CC[C@]3(C)[C@H](CC[C@@H]4[C@@]5(C)CC[C@H](O)C(C)(C)[C@@H]5CC[C@]43C)[C@@H]12 [Betulin-28-maleate] | ++ | − | ++ | ++ | +++ | − | − | against Microsporum canis | ++ |  |  |  |  |  |  |  |  |  |  |
| C=C(C)[C@@H]1CC[C@]2(C)CC[C@@]3(C)C(CCC4[C@@]5(C)CC[C@H](O)C(C)(C)C5CC[C@]43C)C12 (stereo partly drawn) [Lupeol, lup-20(29)-ene-3β-ol] | + | − | + |  |  | − | + |  |  | inhibited the growth | + |  |  |  |  |  |  |  |  |
| Betulin-3,28-dioxalate-3,28-polyethyleneimine |  |  |  |  |  |  |  |  |  |  |  | against Blastomyces dermaidis | against Epidermophyton floccosum | Candida albicans, | Microsporum audouinii, | Trichophyton mentagrophytes, | Microsporum gypseum, | Trichophyton tonsurans, | against Crytococcus neoformans |
